{"source": "patent US11149014B2", "about": "“Method for treating pain or associated condition or symptom” (priority 2014, dated 2021)", "key": {"Female sabra mice": {"test_system": "Female sabra mice", "test": "Forced swimming test (FST) for depressive effect", "type": "in vivo", "conditions": "for moment/kicking per minute score, Mean: mean of last 4 min", "description": "To find out whether HU436 has depressive effects on mice behavior—a forced swimming test (FST) was adopted.\nFemale sabra mice 6-8 weeks old were employed. Measurement of locomotor activity in mice movements were counted for 6 minutes.\nForced Swimming test (FST): The forced swimming test employed was essential similar to that described in ((Pettit-Demoulier et al, (2005) Psychopharmacology 177:245-255;)\nMice were dropped individually into a glass aquarium (height […], diameter 10 cm) containing 10 cm of water and their activity was monitored for 6 minutes. Of the total 6 minutes only the last 4 minutes was recorded—the first 2 minutes were considered as time for habitation.\nThe mice were treated either with 5 mg/kg or 10 mg/kg of HU436 (ip). Mice were scored at 10 minutes 90 minutes or 180 minutes after administration. In addition to mice treated with vehicle as control, 1 mice was injected ip with 5 mg/kg CBD and scored 10 minutes later. The movements/kicking of the mice were counted and the data are presented in the attached Table 1."}, "TNF-α": {"test_system": "TNF-α", "test": "TNF-α in supernatants of TG macrophages treated with LPS (ELISA)", "type": "cell-based, mice", "conditions": "Mus musculus, Macrophage, 40 μg/ml, read-out: inhibition in TNF production", "description": "Peritoneal cells were harvested from C57BL/6 female mice 4 days after intra-peritoneal injection of 1.5 mL of 3% thioglycollate medium (Difco). The cells (TG macrophages) were washed with phosphate-buffered saline, re-suspended in Dulbecco's modified Eagle medium (DMEM) supplemented with 5% fetal calf serum (FCS), and plated (1.2×10^5) in 96-microwell flat-bottom plates (Nunc, Roskide, Denmark). Following 2-3 h incubation at 37° C., the non-adherent cells were removed by intensive rinsing. About 95% of the adherent cells were macrophages. These cells were applied for studying TNF production in-vitro.\nTNF-α in the supernatants of TG macrophages treated with HU-436 (doses of […]) and LPS was determined by ELISA (R&D) with Ab pairs from Biosource (Camarillo, Calif.). Procedures were carried out following the manufacturer's instructions."}}, "note": "Values joined by “and” are separate entries in the source; they are usually repeats but may differ in a detail not shown here. Equal values may be shown once. Where a name gives a salt, the structure may show the parent alone.", "data": [{"smiles": "C=C(C)C1CCC(C)=CC1c1c(OC)cc(CCCCC)cc1OC(=O)CCN1CCOCC1", "note": "[HU-436, Maleate Salt of 3-methoxy-2-((6R)-3-methyl-6-(prop-l-en-2-yl)cyclohex-2-enyl)-5-pentylphenyl 3-morpholinopropanoate]", "values": [{"measurement": "moment/kicking per minute score, Mean", "setting": "Female sabra mice; 5 mg/kg, 10 min after ip", "result": 81, "unit": "per minute"}, {"measurement": "moment/kicking per minute score", "setting": "Female sabra mice; 5 mg/kg, 10 min after ip, minute 3 in tank", "result": 84, "unit": "per minute"}, {"measurement": "moment/kicking per minute score", "setting": "Female sabra mice; 5 mg/kg, 10 min after ip, minute 4 in tank", "result": 96, "unit": "per minute"}, {"measurement": "moment/kicking per minute score", "setting": "Female sabra mice; 5 mg/kg, 10 min after ip, minute 5 in tank", "result": 76, "unit": "per minute"}, {"measurement": "moment/kicking per minute score", "setting": "Female sabra mice; 5 mg/kg, 10 min after ip, minute 6 in tank", "result": 68, "unit": "per minute"}, {"measurement": "moment/kicking per minute score, Mean", "setting": "Female sabra mice; 5 mg/kg, 90 min after ip", "result": 75, "unit": "per minute"}, {"measurement": "moment/kicking per minute score", "setting": "Female sabra mice; 5 mg/kg, 90 min after ip, minute 3 in tank", "result": 70, "unit": "per minute"}, {"measurement": "moment/kicking per minute score", "setting": "Female sabra mice; 5 mg/kg, 90 min after ip, minute 4 in tank", "result": 85, "unit": "per minute"}, {"measurement": "moment/kicking per minute score", "setting": "Female sabra mice; 5 mg/kg, 90 min after ip, minute 5 in tank", "result": 72, "unit": "per minute"}, {"measurement": "moment/kicking per minute score", "setting": "Female sabra mice; 5 mg/kg, 90 min after ip, minute 6 in tank", "result": 73, "unit": "per minute"}, {"measurement": "moment/kicking per minute score, Mean", "setting": "Female sabra mice; 10 mg/kg, 10 min after ip", "result": 75, "unit": "per minute"}, {"measurement": "moment/kicking per minute score", "setting": "Female sabra mice; 10 mg/kg, 10 min after ip, minute 3 in tank", "result": 80, "unit": "per minute"}, {"measurement": "moment/kicking per minute score", "setting": "Female sabra mice; 10 mg/kg, 10 min after ip, minute 4 in tank", "result": 84, "unit": "per minute"}, {"measurement": "moment/kicking per minute score", "setting": "Female sabra mice; 10 mg/kg, 10 min after ip, minute 5 in tank", "result": 64, "unit": "per minute"}, {"measurement": "moment/kicking per minute score", "setting": "Female sabra mice; 10 mg/kg, 10 min after ip, minute 6 in tank", "result": 72, "unit": "per minute"}, {"measurement": "moment/kicking per minute score, Mean", "setting": "Female sabra mice; 10 mg/kg, 180 min after ip", "result": 77, "unit": "per minute"}, {"measurement": "moment/kicking per minute score", "setting": "Female sabra mice; 10 mg/kg, 180 min after ip, minute 3 in tank", "result": 76, "unit": "per minute"}, {"measurement": "moment/kicking per minute score", "setting": "Female sabra mice; 10 mg/kg, 180 min after ip, minute 4 in tank", "result": 52, "unit": "per minute"}, {"measurement": "moment/kicking per minute score", "setting": "Female sabra mice; 10 mg/kg, 180 min after ip, minute 5 in tank", "result": 90, "unit": "per minute"}, {"measurement": "moment/kicking per minute score", "setting": "Female sabra mice; 10 mg/kg, 180 min after ip, minute 6 in tank", "result": 90, "unit": "per minute"}, {"measurement": "moment/kicking per minute score, Mean", "setting": "Female sabra mice; 10 mg/kg, time after ip not given", "result": "81 per minute and 83 per minute"}, {"measurement": "moment/kicking per minute score", "setting": "Female sabra mice; 10 mg/kg, time after ip not given, minute 3 in tank", "result": "79 per minute and 74 per minute"}, {"measurement": "moment/kicking per minute score", "setting": "Female sabra mice; 10 mg/kg, time after ip not given, minute 4 in tank", "result": "80 per minute and 64 per minute"}, {"measurement": "moment/kicking per minute score", "setting": "Female sabra mice; 10 mg/kg, time after ip not given, minute 5 in tank", "result": "89 per minute and 112 per minute"}, {"measurement": "moment/kicking per minute score", "setting": "Female sabra mice; 10 mg/kg, time after ip not given, minute 6 in tank", "result": "76 per minute and 83 per minute"}, {"measurement": "depressive activity", "setting": "Female sabra mice; 5 or 10 mg/kg ip", "result": "did not cause depressive activity"}, {"measurement": "inhibition at 40 µg/mL", "setting": "TNF-α", "result": "> 60", "unit": "%"}]}]}
